The record followed here is ChEMBL document CHEMBL4184197 (Bioorg Med Chem, 2018).

Data set [1] deals with T1, Retinoic acid receptor alpha (Mus musculus) (UniProt P11416).
T1 sequence (whole entry): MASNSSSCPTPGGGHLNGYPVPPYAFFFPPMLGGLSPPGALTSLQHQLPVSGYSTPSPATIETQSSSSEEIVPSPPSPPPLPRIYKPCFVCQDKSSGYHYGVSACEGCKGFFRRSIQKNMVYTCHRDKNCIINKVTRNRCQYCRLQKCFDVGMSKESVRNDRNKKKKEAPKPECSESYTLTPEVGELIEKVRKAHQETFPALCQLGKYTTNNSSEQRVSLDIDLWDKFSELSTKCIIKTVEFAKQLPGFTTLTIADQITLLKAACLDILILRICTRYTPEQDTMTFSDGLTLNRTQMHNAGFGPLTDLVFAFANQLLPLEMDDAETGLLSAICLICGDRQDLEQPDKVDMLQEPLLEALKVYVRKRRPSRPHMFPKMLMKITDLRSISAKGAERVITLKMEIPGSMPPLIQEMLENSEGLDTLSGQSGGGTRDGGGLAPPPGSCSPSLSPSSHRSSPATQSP
The data set can be described thus: Transactivation of mouse Gal4-fused RARalpha-LBD expressed in COS-7 cells after 1 day by bright-Glo reagent based assay relative to control ATRA. It is filed as cell-based.

Data set [2] has as its target T2, Retinoic acid receptor beta (Mus musculus) (UniProt P22605).
T2 sequence (whole entry): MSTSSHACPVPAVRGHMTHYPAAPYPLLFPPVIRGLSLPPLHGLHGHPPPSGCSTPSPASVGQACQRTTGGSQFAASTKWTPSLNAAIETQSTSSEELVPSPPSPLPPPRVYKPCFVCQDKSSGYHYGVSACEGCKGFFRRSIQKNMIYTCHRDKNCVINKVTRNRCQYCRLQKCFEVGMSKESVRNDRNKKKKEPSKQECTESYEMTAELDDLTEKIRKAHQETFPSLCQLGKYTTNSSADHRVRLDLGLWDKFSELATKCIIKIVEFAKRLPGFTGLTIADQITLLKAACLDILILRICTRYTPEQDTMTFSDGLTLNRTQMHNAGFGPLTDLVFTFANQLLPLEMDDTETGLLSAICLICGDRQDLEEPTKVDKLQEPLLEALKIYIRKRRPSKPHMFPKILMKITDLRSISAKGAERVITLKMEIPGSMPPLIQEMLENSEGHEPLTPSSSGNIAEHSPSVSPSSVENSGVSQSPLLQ
The data set can be described thus: Transactivation of mouse Gal4-fused RARbeta-LBD expressed in COS-7 cells after 1 day by bright-Glo reagent based assay relative to control ATRA. It is filed as cell-based.

Data set [3] addresses T3, Retinoic acid receptor gamma (Mus musculus) (UniProt P18911).
T3 sequence (whole entry): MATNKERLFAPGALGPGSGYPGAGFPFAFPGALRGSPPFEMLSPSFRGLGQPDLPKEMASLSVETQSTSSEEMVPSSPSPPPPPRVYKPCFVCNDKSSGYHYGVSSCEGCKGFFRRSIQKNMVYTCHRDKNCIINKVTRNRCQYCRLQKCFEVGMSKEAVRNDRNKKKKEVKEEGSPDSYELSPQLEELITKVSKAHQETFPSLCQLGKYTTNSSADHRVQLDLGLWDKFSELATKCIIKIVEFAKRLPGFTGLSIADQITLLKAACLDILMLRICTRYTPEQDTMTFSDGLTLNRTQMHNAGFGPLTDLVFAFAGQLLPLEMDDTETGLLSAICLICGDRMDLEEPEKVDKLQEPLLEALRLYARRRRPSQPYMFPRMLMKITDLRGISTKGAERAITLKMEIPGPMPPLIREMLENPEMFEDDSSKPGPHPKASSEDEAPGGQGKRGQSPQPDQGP
The data set can be described thus: Transactivation of mouse Gal4-fused RARgamma-LBD expressed in COS-7 cells after 1 day by bright-Glo reagent based assay relative to control ATRA. It is filed as cell-based.

The next data set has as its system Rattus norvegicus. The data set is described as follows: AUC in Sprague-Dawley rat at 10 mg/kg, po by LC-MS/MS analysis. The note with it: in vivo. It counts as ADME, organism-based.
Data set [4] in a line: Oral bioavailability in Sprague-Dawley rat at 10 mg/kg by LC-MS/MS analysis. It is filed as ADME, organism-based. To be noted: in vivo.

Take `CCOc1c(Cl)cc(C(=O)Nc2ccc(C(=O)O)c(O)c2)cc1Cl`: the Ratio EC50 in data set [1] was 33.

For `O=C(O)c1ccc(NC(=O)c2cc(Cl)c(O)c(Cl)c2)cc1`, the figures for the Ratio EC50 in data set [2], in data set [1] and in data set [3] were 642, 92 and 5000, respectively. Turning to `CCOc1c(Br)cc(C(=O)Nc2ccc(C(=O)O)cc2)cc1Br`, the Ratio EC50 in data set [1] worked out at 5. For the compound `O=C(O)c1ccc(NC(=O)c2cc(Cl)c(OC3CCCC3)c(OC3CCCC3)c2)cc1`, the Ratio EC50 in data set [2] was 55; in data set [1] it was 1.7; in data set [3], 571. The corresponding values for `CC(C)(C)Oc1cc(C(=O)Nc2ccc(C(=O)O)cc2)cc(Cl)c1OC(C)(C)C` are 38, 0.9 and 162. On to `Cc1cc(NC(=O)c2cc(Cl)c(OC(C)(C)C)c(OC(C)(C)C)c2)ccc1C(=O)O`, for which the Ratio EC50 in data set [1] came to 0.64. `COc1c(Cl)cc(C(=O)Nc2ccc(C(=O)O)cc2)cc1Cl`: the Ratio EC50 was 9520 in data set [2], 30 in data set [1] and 5850 in data set [3]. Consider `CCOc1c(Cl)cc(C(=O)Nc2ccc(C(=O)O)c(Cl)c2)cc1Cl`, for which the Ratio EC50 in data set [1] turned out to be 151. On the same count and under the same terms, the figure for `CCOc1c(Cl)cc(C(=O)Nc2ccc(C(=O)O)c(C(F)(F)F)c2)cc1Cl` is 1.7; for `COc1c(Cl)cc(C(=O)Nc2ccc(C(=O)O)c(F)c2)cc1OC(C)C` it is 6.7. As for `CCOc1cc(C(=O)Nc2ccc(C(=O)O)cc2)cc(Cl)c1OC(C)C`, the Ratio EC50 in data set [2] came out at 7.1; in data set [1], 2.1; in data set [3], 1200. As for `CCOc1c(OC2CCCC2)cc(C(=O)Nc2ccc(C(=O)O)cc2)cc1OC1CCCC1`, the Ratio EC50 is 4200 in data set [2], 29 in data set [1] and 550 in data set [3]. Compound `CCOc1c(OC(C)C)cc(C(=O)Nc2ccc(C(=O)O)cc2)cc1OC(C)C` came in with an AUC with Rattus norvegicus of 783782 ng·min/mL. For `O=C(O)c1ccc(NC(=O)c2cc(Cl)c(OC3CCC3)c(OC3CCC3)c2)cc1`, the Ratio EC50 in data set [2] is 53; in data set [1], 2.4; in data set [3], 1060.

In the case of `CC(C)Oc1cc(C(=O)Nc2ccc(C(=O)O)cc2)cc(OC(C)C)c1OC(C)C`, the Ratio EC50 amounted to 2600 in data set [2], 27 in data set [1] and 225 in data set [3]. Consider `CCOc1c(Cl)cc(C(=O)Nc2ccc(C(=O)O)c(C)c2)cc1OCC1CC1`, for which the Ratio EC50 in data set [1] amounted to 2.6. In the case of `CCOc1c(Cl)cc(C(=O)Nc2ccc(C(=O)O)cc2)cc1Cl`, the bioavailability in data set [4] was greater than 35%. In the case of `CCCOc1c(Cl)cc(C(=O)Nc2ccc(C(=O)O)cc2)cc1Cl`, the results for the Ratio EC50 in data set [2], in data set [1] and in data set [3] were 139, 15 and 1200, respectively. On the same counts, the results for `CCOc1cc(C(=O)Nc2ccc(C(=O)O)cc2)cc(OCC)c1OCC` are 64100, 368 to 370 and 5880. For the compound `COc1c(Cl)cc(C(=O)Nc2ccc(C(=O)O)c(C)c2)cc1OC(C)C`, the Ratio EC50 in data set [1] stood at 4.7.

For the compound `CCOc1c(Cl)cc(C(=O)Nc2ccc(C(=O)O)cc2)cc1OC1CCC1`, the Ratio EC50 in data set [1] was determined as 1. For the compound `CC1(C)CCC(C)(C)c2c1cc(C(=O)Nc1cc(F)c(C(=O)O)c(F)c1)c(O)c2Cl` [NRX195183], the Ratio EC50 in data set [2] was determined as 1560; in data set [1], 11; in data set [3], 9840. For `CCOc1c(Cl)cc(C(=O)Nc2ccc(C(=O)O)c(F)c2)cc1OC(C)C`, the Ratio EC50 in data set [1] came out at 1.1. Same read-out and setting: the figure for `CCOc1cc(C(=O)Nc2ccc(C(=O)O)c(C)c2)cc(Cl)c1OC(C)C` is 7. Same read-out and setting: under `CC(C)Oc1cc(C(=O)Nc2ccc(C(=O)O)c(F)c2)cc(Cl)c1OC(C)C` stands 2.7. Regarding `CCCCOc1c(Cl)cc(C(=O)Nc2ccc(C(=O)O)cc2)cc1Cl`, the Ratio EC50 came to 717 in data set [2], 84 in data set [1] and 1480 in data set [3]. Regarding `CCOc1c(Cl)cc(C(=O)Nc2ccc(C(=O)O)c(C)c2)cc1OC`, the Ratio EC50 in data set [1] came out at 33. With `CC(C)Oc1c(Cl)cc(C(=O)Nc2ccc(C(=O)O)cc2)cc1Cl`, the values for the Ratio EC50 in data set [2], in data set [1] and in data set [3] were 1420, 7 and 823, respectively. The corresponding values for `CCOc1c(Cl)cc(NC(=O)c2ccc(C(=O)O)cc2)cc1Cl` are 355, 30 and greater than 108000.

Consider `CCOc1cc(C(=O)Nc2ccc(C(=O)O)cc2)cc(OC(C)C)c1OCC`, for which the Ratio EC50 was 2450 in data set [2], 29 in data set [1] and 960 in data set [3]. In the case of `Cc1cc(NC(=O)c2cc(Cl)c(OC(C)C)c(OC(C)C)c2)ccc1C(=O)O`, the Ratio EC50 in data set [1] was found to be 0.97. Still for that read-out and setting: under `CCOc1c(Cl)cc(C(=O)Nc2ccc(C(=O)O)c(F)c2)cc1Cl` stands 25. As for `CCOc1c(C(C)(C)C)cc(C(=O)Nc2ccc(C(=O)O)cc2)cc1C(C)(C)C`, the Ratio EC50 in data set [1] was found to be 0.2.
